Laboratory results reported in patent publication US8415351B2 (priority 2007, dated 2013).

What was measured:
[1] = test system: genotype 1b-Con1 subgenomic replicon cell line; experiment: microbe, parasite or virus in culture; format: cell-based, HCV; conditions: Hepatitis C virus, read-out: EC50 1b
[2] = test system: genotype 1a-H77 subgenomic replicon cell line; experiment: microbe, parasite or virus in culture; format: cell-based, HCV; conditions: Hepatitis C virus, read-out: EC50 1a
HCV = conditions: hepatitis C treatment regimens, background; cited from earlier work

Row | SMILES | EC50 [1] | melting point | EC50 [2] | suppression of HCV levels / effectiveness (HCV)
1 | CCOc1c(-c2ccc3cc(NS(C)(=O)=O)ccc3c2)cc(-n2ccc(=O)[nH]c2=O)cc1C(C)(C)C [IB-L0-2.23, N-(6-(3-tert-butyl-5-(2,4-dioxo-3,4-dihydropyrimidin-1(2H)-yl)-2-ethoxyphenyl)naphthalen-2-yl)methanesulfonamide] | 0.01 to 0.1 µM | 196 to 202 °C | 0.1 to 1 µM | 
2 | COc1c(-c2ccc3cc(NS(C)(=O)=O)ccc3c2)cc(-n2ccc(=O)[nH]c2=O)cc1C(C)(C)CO [IB-L0-2.54, N-(6-(5-(2,4-dioxo-3,4-dihydropyrimidin-1(2H)-yl)-3-(1-hydroxy-2-methylpropan-2-yl)-2-methoxyphenyl)naphthalen-2-yl)methanesulfonamide] | 0.01 to 0.1 µM | 256 to 257 °C | 0.01 to 0.1 µM | 
3 | COc1c(-c2ccc3cc(NS(C)(=O)=O)ccc3c2)cc(-n2ccc(=O)[nH]c2=O)cc1-c1ccc(C)o1 [IB-L0-2.58, N-(6-(5-(2,4-dioxo-3,4-dihydropyrimidin-1(2H)-yl)-2-methoxy-3-(5-methylfuran-2-yl)phenyl)naphthalen-2-yl)methanesulfonamide] | < 0.01 µM | 174 to 178 °C | 0.01 to 0.1 µM | 
4 | COc1c(-c2ccc3cc(NS(C)(=O)=O)ccc3c2)cc(-n2ccc(=O)[nH]c2=O)cc1C(F)(F)C(F)(F)F [IB-L0-2.60, N-(6-(5-(2,4-dioxo-3,4-dihydropyrimidin-1(2H)-yl)-2-methoxy-3-(perfluoroethyl)phenyl)naphthalen-2-yl)methanesulfonamide] | 0.01 to 0.1 µM | 162 to 165 °C | 0.1 to 1 µM | 
5 | NC(=O)c1ncn([C@@H]2O[C@H](CO)[C@@H](O)[C@H]2O)n1 [ribavirin] |  |  |  | does not effectively suppress HCV levels
